Patent publication US12171734B2, “Pathogenic bacteria” (Sporegen Limited, priority 2018, dated 2024)

Tested on: multi-drug resistant M. tuberculosis (Peru isolate)
Assay: microbe, parasite or virus in culture
Format: cell-based
Settings: Mycobacterium tuberculosis, 240 h, read-out: MIC, MDR-TB Peru isolate

SMILES: NNC(=O)c1ccncc1 [Isoniazid]
- MIC: > 4 µg/mL

SMILES: CO[C@H]1/C=C/O[C@@]2(C)Oc3c(C)c(O)c4c(O)c(c(/C=N/N5CCN(C)CC5)c(O)c4c3C2=O)NC(=O)/C(C)=C\C=C\[C@H](C)[C@H](O)[C@@H](C)[C@@H](O)[C@@H](C)[C@H](OC(C)=O)[C@@H]1C [Rifampicin]
- MIC: > 4 µg/mL
